Assay [1] deals with T1, Human DYRK1B (Homo sapiens, UniProt Q9Y463).
T1 construct: purchased Invitrogen PR8350B (former PV4649)
The assay is described as follows: DYRK1B Kinase TR-FRET (IMAP-Tb) Assay. The class given is biochemical. As to conditions: for IC50: TR-FRET (IMAP-Tb), ATP 70 μM, 37° C. for 60 minutes, averages of multiple runs, read-out: Enzyme IC50 (μM) DYRK1B; for inhibition at 10 µM: at 10 μM test compound concentration, where the IC50 was not determined. The source says:
DYRK1B Kinase TR-FRET (IMAP-Tb) Assay Assay Principle The kinase TR-FRET (IMAP-Tb) assay uses a fluorescence labeled substrate peptide in the kinase reaction. Upon phosphorylation by the kinase, phosphopeptide is produced, which will be detected by the binding solution provided in IMAP TR-FRET binding kit. After the completion of the kinase reaction, the reaction will be stopped by adding the binding solution containing terbium tracer. This tracer is immobilized on the surface of the IMAP beads, which also contain metal ions on the beads that bind to the phospho-groups of the products. Thus the phosphorylated product of the reaction can enter into close proximity to the tracer, producing resonance energy transfer. Due to the long lifetime of terbium (Tb) fluorescence the detection can be run in time resolved mode, which virtually eliminates fluorescence interference from assay components or compounds. The TR-FRET signal measurement from this assay, given as an IC50 measurement, is a measure of a test compound's ability to interfere with the phosphorylation of the peptide substrate, that is it inhibits the phosphorylation of the substrate peptide by DYRK1B, and is thus a measure of the test compound's ability to inhibit the activity of DYRK1B. IC50 is the amount of test compound that inhibits 50% of the activity of DYRK1B in this assay. In some cases where the IC50 was not determined, then the % inhibition at 10 μM test compound concentration may be reported. Materials and Reagents • 1. Human DYRK1B: from Invitrogen. Part #PR8350B (former PV4649) • 2. Substrate Peptide: in-house synthesized: RRRFRPASPLRGPPK • 3. IMAP TR-FRET IPP Explorer Kit: from Molecular Devices. Part #R8157 • 4. Kinase Assay Buffer (KAB): 10 mM HEPES pH 7.0, 50 mM NaCl, 5 mM MgCl2, 1 mM DTT, 1 mM NaVO4, 200 μg/mL BSA (0.02%) • 5. Assay Plate: Remp polypropylene clear 384-well microplate. Cat#23490-102 • 6. Detection Plate: Costa black 384-well microplate. Cat #3710 Assay Procedure: this Assay was Performed as Follows: • 1. Transfer 1.5 μL of 20× compound solution to each well of an assay plate. • 2. Add to each well 22.5 μL of KAB Buffer. • 3. Add to each well 3 μL of the solution of DYRK1B and ATP. […] Add to each well 3 μL of the substrate peptide. The assay concentration is 1.0 μM • 5. Incubate the assay plates at 37° C. for 60 minutes. • 6. Add 18 μL of Detection Solution (1:800 diluted Progress bead stock, 1:400 diluted Tb stock, 80% Buffer A, and 20% Buffer B) into each well of detection plates. • 7. Transfer 6 μL of assay solution from the assay plate to the detection plate. • 8. Shake detection plates for 30 minutes. • 9. Read plates in Envision with wavelength set at excitation 340 nm for Tb, emission 490 nm, and […] 520 nm. • 10. Calculation: TR-FRET Signal=(Reading at […]/Reading at 490 nM)×2000000
On the technique in general: TR-FRET usually uses a lanthanide donor and a delayed reading to cut background.

The target of assay [2] is T2, Human DYRK1A (Homo sapiens, UniProt Q13627).
T2 construct: purchased Invitrogen PV3997
The assay is described as follows: DYRK1A Kinase TR-FRET (IMAP-Tb) Assay. The class given is biochemical. As to conditions: for IC50: TR-FRET (IMAP-Tb), ATP 70 μM, 37° C. for 60 minutes, averages of multiple runs, read-out: Enzyme IC50 (μM) DYRK1A. The source says:
DYRK1A Kinase TR-FRET (IMAP-Tb) Assay
The kinase TR-FRET (IMAP-Tb) assay uses a fluorescence labeled substrate peptide in the kinase reaction. Upon phosphorylation by the kinase, phosphopeptide is produced, which will be detected by the binding solution provided in IMAP TR-FRET binding kit. After the completion of the kinase reaction, the reaction will be stopped by adding the binding solution containing terbium tracer. This tracer is immobilized on the surface of the IMAP beads, which also contain metal ions on the beads that bind to the phospho-groups of the products. Thus the phosphorylated product of the reaction can enter into close proximity to the tracer, producing resonance energy transfer. Due to the long lifetime of terbium (Tb) fluorescence the detection can be run in time resolved mode, which virtually eliminates fluorescence interference from assay components or compounds.
The TR-FRET signal measurement from this assay, given as an IC50 measurement, is a measure of a test compound's ability to interfere with the phosphorylation of the peptide substrate, that is it inhibits the phosphorylation of the substrate peptide by DYRK1A, and is thus a measure of the test compound's ability to inhibit the activity of DYRK1A.
Materials and Reagents • 1. Human DYRK1A: from Invitrogen. Part #PV3997 • 2. Substrate Peptide: […] • 3. IMAP TR-FRET IPP Explorer Kit: from Molecular Devices. Part #R8157 • 4. Kinase Assay Buffer (KAB): 10 mM HEPES pH 7.0, 50 mM NaCl, 5 mM MgCl2, 1 mM DTT, 1 mM NaVO4, 200 ug/mL BSA (0.02%) • 5. Assay Plate: Remp polypropylene clear 384-well microplate. […] Detection Plate: Costa black 384-well microplate.
Assay Procedure: this Assay was Performed as Follows: • 1. Transfer 1.5 μL of 20× compound solution to each well of an assay plate. • 2. Add to each well 22.5 μL of KAB Buffer. • 3. Add to each well 3 μL of the solution of DYRK1A and ATP. […] Add to each well 3 μL of the substrate peptide. The assay concentration is 1.0 μM • 5. Incubate the assay plates at 37° C. for 60 minutes. • 6. Add 18 μL of Detection Solution (1:800 diluted Progress bead stock, 1:400 diluted Tb stock, 80% Buffer A, and 20% Buffer B) into each well of detection plates. • 7. Transfer 6 μL of assay solution from the assay plate to the detection plate. • 8. Shake detection plates for 30 minutes. • 9. Read plates in Envision with wavelength set at excitation 340 nm for Tb, emission 490 nm, and […] 520 nm. • 10.

Structures can show the parent of a compound that is named as a salt.

The term IC50 denotes the concentration that gives 50% inhibition. As usually defined, the inhibition is the drop in the measured response relative to a control, in per cent.

T1 sequence (Q9Y463 whole entry): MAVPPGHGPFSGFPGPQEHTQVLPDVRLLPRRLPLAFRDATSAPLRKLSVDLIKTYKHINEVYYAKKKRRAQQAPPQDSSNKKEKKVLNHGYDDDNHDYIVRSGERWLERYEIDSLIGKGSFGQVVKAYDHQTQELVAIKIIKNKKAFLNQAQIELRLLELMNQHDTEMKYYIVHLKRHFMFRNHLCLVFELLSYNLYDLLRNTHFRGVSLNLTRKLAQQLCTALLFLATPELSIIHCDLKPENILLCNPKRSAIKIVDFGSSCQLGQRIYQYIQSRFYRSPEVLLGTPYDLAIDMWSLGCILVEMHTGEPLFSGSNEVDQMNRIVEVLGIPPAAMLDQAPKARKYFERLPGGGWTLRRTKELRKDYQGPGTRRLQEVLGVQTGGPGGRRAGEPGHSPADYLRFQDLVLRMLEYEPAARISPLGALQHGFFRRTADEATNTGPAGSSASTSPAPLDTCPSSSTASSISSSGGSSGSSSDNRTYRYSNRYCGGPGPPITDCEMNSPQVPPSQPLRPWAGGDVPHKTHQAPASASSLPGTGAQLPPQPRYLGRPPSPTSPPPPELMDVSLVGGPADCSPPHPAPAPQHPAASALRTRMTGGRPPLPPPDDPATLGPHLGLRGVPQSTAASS

On to `Clc1cccc(CNc2nccc(-c3n[nH]c4nc(NCCN5CCCCC5)ncc34)n2)c1` [Example 93, hydrochloride], for which the IC50 in assay [1] was found to be 0.93 µM; in assay [2] it was 0.46 µM.
On the same counts, the results for `N[C@H]1CC[C@H](Nc2ncc3c(-c4ccnc(NCc5cccc(C(F)(F)F)c5)n4)n[nH]c3n2)CC1` [Example 84, N-{3-[2-(3-Trifluoromethyl-benzylamino)-pyrimidin-4-yl]-1H-pyrazolo[3,4-d]pyrimidin-6-yl}-cyclohexane-1,4-diamine; hydrochloride] are 0.007 µM and 0.005 µM.
On the same counts, the results for `NCCC(Nc1nccc(-c2n[nH]c3nc(N[C@H]4CC[C@H](N)CC4)ncc23)n1)c1ccccc1` (stereo partly shown) [Example 68, N-{3-[2-(3-Amino-1-phenyl-propylamino)-pyrimidin-4-yl]-1H-pyrazolo[3,4-d]pyrimidin-6-yl}-cyclohexane-1,4-diamine; hydrochloride] are 0.011 µM and 0.011 µM.
On the same counts, the results for `Clc1ccc(CNc2cccc(-c3n[nH]c4nc(NCCN5CCOCC5)ncc34)n2)cc1` [Example 48, {3-[6-(4-Chloro-benzylamino)-pyridin-2-yl]-1H-pyrazolo[3,4-d]pyrimidin-6-yl}-(2-morpholin-4-yl-ethyl)-amine] are 2.92 µM and 2.96 µM.
Regarding `Clc1cccc(CNc2nccc(-c3n[nH]c4nc(NCCN5CCCC5)ncc34)n2)c1` [Example 90, {3-[2-(3-Chloro-benzylamino)-pyrimidin-4-yl]-1H-pyrazolo[3,4-d]pyrimidin-6-yl}-(2-pyrrolidin-1-yl-ethyl)-amine; hydrochloride], the IC50 was found to be 1.32 µM in assay [1] and 0.536 µM in assay [2].
In the case of `Clc1cccc(CNc2nccc(-c3n[nH]c4nc(NC5CCNCC5)ncc34)n2)c1` [Example 86, {3-[2-(3-Chloro-benzylamino)-pyrimidin-4-yl]-1H-pyrazolo[3,4-d]pyrimidin-6-yl}-piperidin-4-yl-amine; hydrochloride], the IC50 in assay [1] is 0.078 µM; in assay [2], 0.047 µM.
For the compound `c1ccc(CNc2cccc(-c3n[nH]c4nc(NCCN5CCCCC5)ncc34)n2)cc1` [Example 44, [3-(6-Benzylamino-pyridin-2-yl)-1H-pyrazolo[3,4-d]pyrimidin-6-yl]-(2-piperidin-1-yl-ethyl)-amine], the inhibition at 10 µM in assay [1] was determined as 32%. Moreover, the IC50 in assay [2] came to 3.96 µM.
In the case of `Clc1ccc(CNc2cccc(-c3n[nH]c4nc(NCCN5CCOCC5)ncc34)c2)cc1` [Example 50, {3-[3-(4-Chloro-benzylamino)-phenyl]-1H-pyrazolo[3,4-d]pyrimidin-6-yl}-(2-morpholin-4-yl-ethyl)-amine], the IC50 in assay [1] is over 10 µM; in assay [2] it was 4.91 µM.
For `N[C@H]1CC[C@@H](Nc2ncc3c(-c4ccnc(NCc5cccc(Cl)c5)n4)n[nH]c3n2)CC1` [Example 89, N-{3-[2-(3-Chloro-benzylamino)-pyrimidin-4-yl]-1H-pyrazolo[3,4-d]pyrimidin-6-yl}-cyclohexane-1,4-diamine; hydrochloride] the same measures were 0.186 µM and 0.415 µM.
Take `Clc1cccc(CNc2nccc(-c3n[nH]c4nc(NCC5CCNCC5)ncc34)n2)c1` [Example 88, {3-[2-(3-Chloro-benzylamino)-pyrimidin-4-yl]-1H-pyrazolo[3,4-d]pyrimidin-6-yl}-piperidin-4-ylmethyl-amine; hydrochloride]: the IC50 in assay [1] came out at 0.016 µM; in assay [2], 0.0089 µM.
On the same counts, the results for `NCC(Nc1nccc(-c2n[nH]c3nc(N[C@H]4CC[C@H](N)CC4)ncc23)n1)c1ccccc1` (stereo partly shown) [Example 67, N-{3-[2-(2-Amino-1-phenyl-ethylamino)-pyrimidin-4-yl]-1H-pyrazolo[3,4-d]pyrimidin-6-yl}-cyclohexane-1,4-diamine; hydrochloride] are 0.00517 µM and 0.0046 µM.
On the same counts, the results for `Clc1cccc(CNc2nccc(-c3n[nH]c4nc(NCCN5CCNCC5)ncc34)n2)c1` [Example 92, {3-[2-(3-Chloro-benzylamino)-pyrimidin-4-yl]-1H-pyrazolo[3,4-d]pyrimidin-6-yl}-(2-piperazin-1-yl-ethyl)-amine; hydrochloride] are 0.057 µM and 0.076 µM.
On the same counts, the results for `N[C@H]1CC[C@H](Nc2ncc3c(-c4ccnc(NCc5cccc(F)c5)n4)n[nH]c3n2)CC1` [Example 85, N-{3-[2-(3-Fluoro-benzylamino)-pyrimidin-4-yl]-1H-pyrazolo[3,4-d]pyrimidin-6-yl}-cyclohexane-1,4-diamine; hydrochloride] are under 0.0046 µM and 0.0046 µM.
For `NCCC(Nc1cccc(-c2n[nH]c3nc(NCCN4CCOCC4)ncc23)n1)c1ccccc1` (stereo not shown) [Example 75, N1-{6-[6-(2-Morpholin-4-yl-ethylamino)-1H-pyrazolo[3,4-d]pyrimidin-3-yl]-pyridin-2-yl}-1-phenyl-propane-1,3-diamine; hydrochloride], the IC50 in assay [1] worked out at 2.73 µM; in assay [2], 2.58 µM.
Turning to `c1ccc(CNc2cccc(-c3n[nH]c4nc(NCCN5CCOCC5)ncc34)c2)cc1` [Example 46, [3-(3-Benzylamino-phenyl)-1H-pyrazolo[3,4-d]pyrimidin-6-yl]-(2-morpholin-4-yl-ethyl)-amine], the inhibition at 10 µM in assay [1] turned out to be 43%; in assay [2] (at 10 μM test compound concentration, where the IC50 was not determined), 55%.
Take `c1cc(NCc2ccsc2)cc(-c2n[nH]c3nc(NCCN4CCOCC4)ncc23)c1` [Example 51, (2-Morpholin-4-yl-ethyl)-(3-{3-[(thiophen-3-ylmethyl)-amino]-phenyl}-1H-pyrazolo[3,4-d]pyrimidin-6-yl)-amine]: the IC50 in assay [1] was over 10 µM; in assay [2], 9.02 µM.
For `CN(C)CCNc1ncc2c(-c3ccnc(NCc4cccc(Cl)c4)n3)n[nH]c2n1` [Example 87, N-{3-[2-(3-Chloro-benzylamino)-pyrimidin-4-yl]-1H-pyrazolo[3,4-d]pyrimidin-6-yl}-N′,N′-dimethyl-ethane-1,2-diamine; hydrochloride] the same measures were 0.69 µM and 0.31 µM.

These data come from patent publication US8362023B2, “Pyrazolo pyrimidines” (Hoffmann-La Roche Inc., priority 2011, dated 2013).
